Results published in PubChem BioAssay (NCI).
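Cultured in 96-well plates, cells were exposed to test compound for 48 hours across five concentrations. TGI denotes the concentration required for complete inhibition of growth.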

What was measured:
Test in all cases: DTP human tumour cell line panel, 48 h
[1] = system: UO-31 renal
[2] = system: TK-10 renal
[3] = system: SN12C renal
[4] = system: CAKI-1 renal
[5] = system: CCRF-CEM leukemia
[6] = system: MALME-3M melanoma
[7] = system: PC-3 prostate
[8] = system: SK-MEL-5 melanoma
[9] = system: MDA-MB-435
[10] = system: NCI-H522 lung
[11] = system: HOP-92 NSCLC
[12] = system: NCI/ADR-RES ovarian
[13] = system: NCI-H23 lung
[14] = system: A549 NSCLC
[15] = system: MCF7 breast
[16] = system: DU-145 prostate
[17] = system: UACC-62 melanoma
[18] = system: HCT-116 colon
[19] = system: SF-539 CNS
[20] = system: U251 CNS
[21] = system: SF-268 CNS
[22] = system: M14 melanoma
[23] = system: 786-0 renal
[24] = system: UACC-257 melanoma
[25] = system: HOP-62 NSCLC
[26] = system: OVCAR-5 ovarian
[27] = system: SK-OV-3 ovarian
[28] = system: SW-620 colon
[29] = system: SF-295 CNS
[30] = system: OVCAR-3 ovarian
[31] = system: HS 578T breast
[32] = system: OVCAR-8 ovarian
[33] = system: NCI-H460 lung
[34] = system: ACHN renal
[35] = system: SK-MEL-2 melanoma
[36] = system: SNB-19 CNS
[37] = system: MDA-MB-231 breast
[38] = system: HL-60(TB) leukemia
[39] = system: RPMI-8226 leukemia
[40] = system: HT29 colon
[41] = system: KM12 colon
[42] = system: K-562 leukemia
[43] = system: HCT-15 colon
[44] = system: EKVX NSCLC
[45] = system: COLO 205 colon
[46] = system: BT-549 breast
[47] = system: MOLT-4 leukemia
[48] = system: SR leukemia
[49] = system: IGROV1 ovarian
[50] = system: T-47D breast

c1ccc2c(c1)SC1=Nc3sc4ccccc4[n+]3CN12
TGI [1]: > 100 µM | TGI [2]: 76.6 µM | TGI [3]: 71.1 µM | TGI [4]: 42.4 µM | TGI [5]: > 100 µM | TGI [6]: 37.6 µM | TGI [7]: > 100 µM | TGI [8]: 10.9 µM | TGI [9]: 49.5 µM | TGI [10]: 9.03 µM | TGI [11]: 47.5 µM | TGI [12]: > 100 µM | TGI [13]: 59.8 µM | TGI [14]: 25.5 µM | TGI [15]: 42.9 µM | TGI [16]: > 100 µM | TGI [17]: 45.1 µM | TGI [18]: > 100 µM | TGI [19]: 69 µM | TGI [20]: 21.6 µM | TGI [21]: 49.7 µM | TGI [22]: 66.2 µM | TGI [23]: 83.7 µM | TGI [24]: > 100 µM | TGI [25]: > 100 µM | TGI [26]: 71.1 µM | TGI [27]: 66.8 µM | TGI [28]: > 100 µM | TGI [29]: > 100 µM | TGI [30]: 11.7 µM | TGI [31]: 67.9 µM | TGI [32]: > 100 µM | TGI [33]: 44.1 µM | TGI [34]: > 100 µM | TGI [35]: 28.7 µM | TGI [36]: > 100 µM | TGI [37]: 49.2 µM | TGI [38]: 82.3 µM | TGI [39]: 59.6 µM | TGI [40]: 37.7 µM | TGI [41]: 29.3 µM | TGI [42]: 81.6 µM | TGI [43]: > 100 µM | TGI [44]: 53.5 µM | TGI [45]: 10.9 µM | TGI [46]: > 100 µM | TGI [47]: 39 µM | TGI [48]: 56.8 µM | TGI [49]: 46.3 µM | TGI [50]: 78 µM
